Test results taken from patent US7625875B2 (priority 2002, dated 2009).
Where two headings read alike, the source gives them in different places.

Assays:
HCV = assay: Clinical antiviral activity, serum HCV RNA (Amplicor HCV Monitor), val-mCyd daily for 15 days; conditions: 100 mg

CC(C)C(N)C(=O)OC1[C@@H](CO)O[C@@H](n2ccc(N)nc2=O)[C@@]1(C)O (stereo partly drawn) [val-mCyd, 2-Amino-3-methyl-butyric acid 5-(4-amino-2-oxo-2H-pyrimidine-1-yl)-4-hydroxy-2 hydroxy-methyl-4-methyl-tetrahydro-furan-3-yl ester]
HCV RNA in Log10 scale, median (HCV; Day 4): 6.46 log10
Change from baseline (Day 1) in Log10 HCV RNA, mean (HCV; Day 8): −0.21 log10
Change from baseline (Day 1) in Log10 HCV RNA, median (HCV; Day 8): −0.20 log10
HCV RNA in Log10 scale, mean (HCV; Day 8): 6.42 log10
HCV RNA in Log10 scale, median (HCV; Day 8): 6.59 log10
Change from baseline (Day 1) in Log10 HCV RNA, mean (HCV; Day 11): −0.32 log10
Change from baseline (Day 1) in Log10 HCV RNA, median (HCV; Day 11): −0.28 log10
HCV RNA in Log10 scale, mean (HCV; Day 11): 6.36 log10
HCV RNA in Log10 scale, median (HCV; Day 11): 6.56 log10
Change from baseline (Day 1) in Log10 HCV RNA, mean (HCV; Day 15): −0.38 log10
Change from baseline (Day 1) in Log10 HCV RNA, median (HCV; Day 15): −0.43 log10
HCV RNA in Log10 scale, mean (HCV; Day 15): 6.30 log10
HCV RNA in Log10 scale, median (HCV; Day 15): 6.41 log10
Change from baseline (Day 1) in Log10 HCV RNA, mean (HCV; Day 16): −0.39 log10
Change from baseline (Day 1) in Log10 HCV RNA, median (HCV; Day 16): −0.49 log10
HCV RNA in Log10 scale, mean (HCV; Day 16): 6.23 log10
HCV RNA in Log10 scale, median (HCV; Day 16): 6.40 log10
Change from baseline (Day 1) in Log10 HCV RNA, mean (HCV; Day 17): −0.18 log10
Change from baseline (Day 1) in Log10 HCV RNA, median (HCV; Day 17): −0.24 log10
HCV RNA in Log10 scale, mean (HCV; Day 17): 6.65 log10
HCV RNA in Log10 scale, median (HCV; Day 17): 6.72 log10
Change from baseline (Day 1) in Log10 HCV RNA, mean (HCV; Day 22): −0.15 log10
Change from baseline (Day 1) in Log10 HCV RNA, median (HCV; Day 22): −0.19 log10
HCV RNA in Log10 scale, mean (HCV; Day 22): 6.53 log10
HCV RNA in Log10 scale, median (HCV; Day 22): 6.66 log10
Change from baseline (Day 1) in Log10 HCV RNA, mean (HCV; Day 29): 0.13 log10
Change from baseline (Day 1) in Log10 HCV RNA, median (HCV; Day 29): −0.12 log10
HCV RNA in Log10 scale, mean (HCV; Day 29): 6.67 log10
HCV RNA in Log10 scale, median (HCV; Day 29): 6.71 log10
HCV RNA in Log10 scale, mean (HCV; Day −1 (pre-treatment)): 6.60 log10
HCV RNA in Log10 scale, median (HCV; Day −1 (pre-treatment)): 6.75 log10
mean reduction from baseline HCV viral load (HCV genotype 1; 8.3 mg/kg/day dose group, end of treatment (day 7)): 0.83 log10
Change in baseline Log10 HCV RNA viral load (HCV genotype 1; 8.3 mpk, animal 500, site 1, Day 2): −1.156 log10
Change in baseline Log10 HCV RNA viral load (HCV genotype 1; 8.3 mpk, animal 500, site 1, Day 5): −0.4038 log10
Change in baseline Log10 HCV RNA viral load (HCV genotype 1; 8.3 mpk, animal 500, site 1, Day 7): −0.8051 log10
Change in baseline Log10 HCV RNA viral load (HCV genotype 1; 8.3 mpk, animal 500, site 2, Day 2): −1.079 log10
Change in baseline Log10 HCV RNA viral load (HCV genotype 1; 8.3 mpk, animal 500, site 2, Day 5): −0.5503 log10
Change in baseline Log10 HCV RNA viral load (HCV genotype 1; 8.3 mpk, animal 500, site 2, Day 7): −1.063 log10
Change in baseline Log10 HCV RNA viral load (HCV genotype 1; 8.3 mpk, animal 501, site 1, Day 2): −0.2518 log10
Change in baseline Log10 HCV RNA viral load (HCV genotype 1; 8.3 mpk, animal 501, site 1, Day 5): −0.3618 log10
Change in baseline Log10 HCV RNA viral load (HCV genotype 1; 8.3 mpk, animal 501, site 1, Day 7): −0.4361 log10
Change in baseline Log10 HCV RNA viral load (HCV genotype 1; 8.3 mpk, animal 501, site 2, Day 2): −0.452 log10
Change in baseline Log10 HCV RNA viral load (HCV genotype 1; 8.3 mpk, animal 501, site 2, Day 5): −0.7125 log10
Change in baseline Log10 HCV RNA viral load (HCV genotype 1; 8.3 mpk, animal 501, site 2, Day 7): −0.9003 log10
Change in baseline Log10 HCV RNA viral load (HCV genotype 1; 16.6 mpk, animal 497, site 1, Day 2): −0.7215 log10
Change in baseline Log10 HCV RNA viral load (HCV genotype 1; 16.6 mpk, animal 497, site 1, Day 5): −0.907 log10
Change in baseline Log10 HCV RNA viral load (HCV genotype 1; 16.6 mpk, animal 497, site 1, Day 7): −1.277 log10
Change in baseline Log10 HCV RNA viral load (HCV genotype 1; 16.6 mpk, animal 497, site 2, Day 2): −0.8556 log10
Change in baseline Log10 HCV RNA viral load (HCV genotype 1; 16.6 mpk, animal 497, site 2, Day 5): −1.02 log10
Change in baseline Log10 HCV RNA viral load (HCV genotype 1; 16.6 mpk, animal 497, site 2, Day 7): −1.514 log10
Change in baseline Log10 HCV RNA viral load (HCV genotype 1; 16.6 mpk, animal 498, site 1, Day 2): −0.2947 log10
Change in baseline Log10 HCV RNA viral load (HCV genotype 1; 16.6 mpk, animal 498, site 1, Day 5): −0.2814 log10
Change in baseline Log10 HCV RNA viral load (HCV genotype 1; 16.6 mpk, animal 498, site 1, Day 7): −0.603 log10
Change in baseline Log10 HCV RNA viral load (HCV genotype 1; 16.6 mpk, animal 498, site 2, Day 2): −0.6585 log10
Change in baseline Log10 HCV RNA viral load (HCV genotype 1; 16.6 mpk, animal 498, site 2, Day 5): −0.5597 log10
Change in baseline Log10 HCV RNA viral load (HCV genotype 1; 16.6 mpk, animal 498, site 2, Day 7): −0.6914 log10
HCV viral load (HCV genotype 1; animal 497, site 2, day 7, pretreatment 535,000): 16,500 genomes per ml
